Assay results published in ChEMBL document CHEMBL1201862, “PubChem BioAssay data set” (2004).
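Method: 48-hour compound exposure of cells in 96-well plates, five concentrations, linear interpolation of endpoints. GI50: concentration for 50% inhibition of growth.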 The source made the active and inactive calls. Rule as the data show it: active = GI50 up to about 1.1 µM and inactive = higher.

Key:
Test in all cases: inhibition of tumour cell growth, NCI panel, 48 h
[1] = test system: SF-268
[2] = test system: MDA-MB-435
[3] = test system: A549
[4] = test system: UO-31
[5] = test system: Malme-3M
[6] = test system: SK-OV-3
[7] = test system: HCT-15
[8] = test system: HOP-62
[9] = test system: SK-MEL-2
[10] = test system: HCC 2998
[11] = test system: RXF 393
[12] = test system: OVCAR-8
[13] = test system: IGROV-1
[14] = test system: HOP-92
[15] = test system: SF-539
[16] = test system: U-251
[17] = test system: UACC-62
[18] = test system: NCI/ADR-RES
[19] = test system: SN12C
[20] = test system: 786-0

SMILES	GI50 [1]	GI50 [2]	GI50 [3]	GI50 [4]	GI50 [5]	GI50 [6]	GI50 [7] [µM]	GI50 [8]	GI50 [9]	GI50 [10]	GI50 [11]	GI50 [12]	GI50 [13]	GI50 [14]	GI50 [15]	GI50 [16]	GI50 [17]	GI50 [18]	GI50 [19]	GI50 [20]
O=C1C=C(c2c(O)ccc3ccccc23)c2ccccc2C1=O	6.12 µM (inactive)	3.01 µM (inactive)	5.86 µM (inactive)	2.24 µM (inactive)	5.2 µM (inactive)	10.7 µM (inactive)	3.57	13 µM (inactive)	4.68 µM (inactive)	11.7 µM (inactive)	2.06 µM (inactive)	1.89 µM (inactive)	3.3 µM (inactive)	2.22 µM (inactive)	2.09 µM (inactive)	2.21 µM (inactive)	2.35 µM (inactive)	3.15 µM (inactive)	2.58 µM (inactive)	2.15 µM (inactive)
CC(=O)Nc1ccc(Nc2cc(=O)n(C)c(=O)[nH]2)cc1	> 100 µM (inactive)	> 100 µM (inactive)	> 100 µM (inactive)	> 100 µM (inactive)	> 100 µM (inactive)	> 100 µM (inactive)	> 100	> 100 µM (inactive)	> 100 µM (inactive)	> 100 µM (inactive)	> 100 µM (inactive)	> 100 µM (inactive)	> 100 µM (inactive)	> 100 µM (inactive)	> 100 µM (inactive)	> 100 µM (inactive)	> 100 µM (inactive)	> 100 µM (inactive)	> 100 µM (inactive)	> 100 µM (inactive)
COC(=O)[C@@H]1C[C@@H]2c3ccccc3N(S(=O)(=O)c3ccccc3)[C@@H]2N1C(=O)OC	> 100 µM (inactive)	> 100 µM (inactive)	> 100 µM (inactive)	> 100 µM (inactive)	> 100 µM (inactive)	> 100 µM (inactive)	> 100	> 100 µM (inactive)	> 100 µM (inactive)	> 100 µM (inactive)	> 100 µM (inactive)	> 100 µM (inactive)	> 100 µM (inactive)	> 100 µM (inactive)	> 100 µM (inactive)	> 100 µM (inactive)	> 100 µM (inactive)	> 100 µM (inactive)	> 100 µM (inactive)	> 100 µM (inactive)
O=C(NNC(=S)Nc1cccc(Cl)c1)c1cc(-c2ccccc2)nc2ccccc12	17 µM (inactive)	16 µM (inactive)	16.3 µM (inactive)	15.1 µM (inactive)	15.4 µM (inactive)	19.9 µM (inactive)	14.6	16.3 µM (inactive)	13.8 µM (inactive)	12.6 µM (inactive)	16.1 µM (inactive)	20.7 µM (inactive)	18.7 µM (inactive)	12.5 µM (inactive)	15.1 µM (inactive)	12.3 µM (inactive)	13.4 µM (inactive)	20.4 µM (inactive)	14.7 µM (inactive)	17.1 µM (inactive)
CCn1c2ccc(C(=O)CCCN(C)C)cc2c2cc(C(=O)CCCN(C)C)ccc21	1.75 µM (inactive)	1.27 µM (inactive)	0.867 µM (active)	3.48 µM (inactive)	2.81 µM (inactive)	5.79 µM (inactive)	1.27	0.701 µM (active)	2.25 µM (inactive)	1.69 µM (inactive)	1.68 µM (inactive)	0.533 µM (active)	0.889 µM (active)	3.03 µM (inactive)	0.805 µM (active)	2.24 µM (inactive)	7.59 µM (inactive)	4.93 µM (inactive)	0.946 µM (active)	0.243 µM (active)
CC(C)(C)C1CCC2c3c([nH]c4ccccc34)C3C(=O)N(c4cccc(Cl)c4)C(=O)C3C2C1 (stereo not given)	13 µM (inactive)	10.5 µM (inactive)	14.2 µM (inactive)	9.12 µM (inactive)	16.6 µM (inactive)	24.1 µM (inactive)	14.5	0.518 µM (active)	17 µM (inactive)	3.72 µM (inactive)	8.36 µM (inactive)	17.7 µM (inactive)	13.8 µM (inactive)	5.05 µM (inactive)	17.5 µM (inactive)	13.9 µM (inactive)	12.9 µM (inactive)	13.6 µM (inactive)	5.71 µM (inactive)	8.28 µM (inactive)
CC(=O)c1ccc2c(c1)CC1(C2)Cc2ccccc2C1=O (stereo not given)	74 µM (inactive)	34.2 µM (inactive)	37.8 µM (inactive)	42.4 µM (inactive)	28.4 µM (inactive)	> 100 µM (inactive)	51.5	> 100 µM (inactive)	71 µM (inactive)	40.6 µM (inactive)	42.5 µM (inactive)	37.9 µM (inactive)	79.1 µM (inactive)	22.4 µM (inactive)	> 100 µM (inactive)	67.5 µM (inactive)	55.6 µM (inactive)	16 µM (inactive)	69 µM (inactive)	77.8 µM (inactive)
COC(=O)C1(C)CCCC2(C)C3CCC4CC3(C=C4CO)CCC12 (stereo not given)	37.8 µM (inactive)	83.2 µM (inactive)	> 100 µM (inactive)	32.9 µM (inactive)	27 µM (inactive)	> 100 µM (inactive)	17.4	75 µM (inactive)	82.4 µM (inactive)	39.6 µM (inactive)	56.4 µM (inactive)	36.9 µM (inactive)	> 100 µM (inactive)	55.1 µM (inactive)	32.1 µM (inactive)	57.4 µM (inactive)	> 100 µM (inactive)	24.4 µM (inactive)	20.3 µM (inactive)	43.4 µM (inactive)
CC(C)CC1NC(=O)C(C(C)C)NC(=O)CC(C)COC(=O)C(CC(C)C)N(C)C(=O)C(C(C)C)NC(=O)C(C(C)C)OC1=O (stereo not given)	> 50 µM (inactive)	> 50 µM (inactive)	> 50 µM (inactive)	> 50 µM (inactive)	> 50 µM (inactive)	29.1 µM (inactive)	> 50	15.2 µM (inactive)	18.2 µM (inactive)	> 50 µM (inactive)	16.1 µM (inactive)	34.7 µM (inactive)	> 50 µM (inactive)	26.5 µM (inactive)	8.28 µM (inactive)	31.2 µM (inactive)	16 µM (inactive)	> 50 µM (inactive)	> 50 µM (inactive)	31.3 µM (inactive)
O=c1[nH]c(=O)n(C2C(CO)OC(CO)C2O)cc1F (stereo not given)	> 100 µM (inactive)	> 100 µM (inactive)	> 100 µM (inactive)	> 100 µM (inactive)	> 100 µM (inactive)	> 100 µM (inactive)	> 100	> 100 µM (inactive)	> 100 µM (inactive)	> 100 µM (inactive)	> 100 µM (inactive)	> 100 µM (inactive)	> 100 µM (inactive)	> 100 µM (inactive)	> 100 µM (inactive)	> 100 µM (inactive)	> 100 µM (inactive)	> 100 µM (inactive)	> 100 µM (inactive)	> 100 µM (inactive)
Nc1nc(Cl)cc(NCCC2(CO)CCC2)n1	> 100 µM (inactive)	> 100 µM (inactive)	> 100 µM (inactive)	> 100 µM (inactive)	> 100 µM (inactive)	> 100 µM (inactive)	> 100	> 100 µM (inactive)	> 100 µM (inactive)	> 100 µM (inactive)	> 100 µM (inactive)	> 100 µM (inactive)	> 100 µM (inactive)	93.3 µM (inactive)	> 100 µM (inactive)	> 100 µM (inactive)	> 100 µM (inactive)	> 100 µM (inactive)	> 100 µM (inactive)	> 100 µM (inactive)
Nc1nn2c(C(Br)Br)cc(C(Br)Br)nc2c1[N+](=O)[O-]	1.88 µM (inactive)	0.587 µM (active)	2.43 µM (inactive)	1.25 µM (inactive)	0.738 µM (active)	3.43 µM (inactive)	1.07	1.88 µM (inactive)	1.89 µM (inactive)	2.17 µM (inactive)	1.37 µM (inactive)	0.962 µM (active)	1.21 µM (inactive)	1.17 µM (inactive)	0.785 µM (active)	0.668 µM (active)	1.81 µM (inactive)	2.78 µM (inactive)	1.6 µM (inactive)	0.336 µM (active)
Nc1ccc2c(=O)cc(-c3ccc(Br)s3)[nH]c2n1	6.22 µM (inactive)	0.32 µM (active)	5.5 µM (inactive)	2.64 µM (inactive)	12.4 µM (inactive)	3.94 µM (inactive)	2.26	4.86 µM (inactive)	> 100 µM (inactive)	3.39 µM (inactive)	3.71 µM (inactive)	3.52 µM (inactive)	3.85 µM (inactive)	12.7 µM (inactive)	2.16 µM (inactive)	3.61 µM (inactive)	3.02 µM (inactive)	2.6 µM (inactive)	6.55 µM (inactive)	4.02 µM (inactive)
CCc1nc(N)nc(N)c1-c1ccc(NCCN)c([N+](=O)[O-])c1	7.1 µM (inactive)	7.13 µM (inactive)	4.19 µM (inactive)	> 100 µM (inactive)	13.7 µM (inactive)	82.8 µM (inactive)	37	18.2 µM (inactive)	46.7 µM (inactive)	10.4 µM (inactive)	39 µM (inactive)	7.67 µM (inactive)	8.97 µM (inactive)	27.6 µM (inactive)	11.6 µM (inactive)	9.08 µM (inactive)	6.3 µM (inactive)	> 100 µM (inactive)	12.1 µM (inactive)	7.03 µM (inactive)
